For one series, the system named is OVCAR8 cells. The series can be described thus: Proliferation assay (Incucyte confluency), OVCAR8. To be noted: Homo sapiens, OVCAR-8, 96 h, 4 days, read-out: IC50, inhibition of OVCAR8 proliferation. The series is classed as cell-based. The procedure: (§1) COS-7, MDA-MB-231, and HepG2, were cultured in Dulbecco's modified Eagle's medium (DMEM) supplemented with 10% fetal bovine serum (Invitrogen Life Sciences, Carlsbad, CA). BT-549, OVCAR5 and OVCAR8 cells were cultured in L-Glutamine containing RPMI medium supplemented with 10% fetal calf serum (Invitrogen Life Sciences, Carlsbad, CA). The primary Human Mammary Epithelial Cells (HMEC) were cultured in mammary epithelial cell complete medium (basal medium plus rH-Insulin (5 μg/mL); L-Glutamine (6 mM); Epinephrine (1 μM); Apo-Transferrin (5 μg/mL); rH-TGF-α (0.5 ng/mL); ExtractP (0.4%); Hydrocortisone Hemisuccinate (100 ng/mL)).
(§2) 2000 cells were plated in each well of 96-well plate. The next day cells were treated with compounds and incubated in Incucyte for 4 days. Images taken every 4 hours for the duration of the time were analyzed to calculate percentage of confluency in response to the treatments. Growth inhibition was calculated as 1—(percentage of viable cells out of untreated cells).

A further series addresses FABP3 (Homo sapiens (Human), UniProt P05413). Put plainly: Fluorescence (ANS) competition binding assay, FABP3. The following applies: ANS displacement. The protocol: (§3) This example illustrates a two-step fluorescence binding assay study used to determine the binding affinity of the various inhibitor compounds disclosed herein with the various FABPs: FABP3, FABP4, FABP5 and FABP7. Further secondary screening studies were carried out for compounds with high binding affinities toward the FABPs and based on their ability to activate the nuclear receptors PPARα, PPARγ, or PPARδ.
(§4) Binding assays for FABP3, FABP4, FABP5 and FABP7 were carried out by fluorescence titrations. His-tagged FABPs were bacterially expressed in E. coli, purified using Ni Sepharose beads, and the equilibrium dissociation constants (Kd) that characterize their interactions with different inhibitor compounds were measured by fluorescence competition assays. The method entails two steps as described in e.g., Lin, Q. et al., “Ligand selectivity of the peroxisome proliferator-activated receptor alpha,” Biochemistry 38, 185-190, doi:10.1021/bi9816094 [pii](1999). In the first step, Kd for the association of the protein with the fluorescent fatty acid probe ANS was measured. Protein (2 μM) was titrated with ANS from a concentrated solution in DMSO. Ligand binding was monitored by following the increase in the fluorescence of the ligand upon binding to the protein, and Kd for the association of ANS with the each FABP was computed from titration curves as described in e.g., Norris, A. W. & Li, E., “Fluorometric titration of the CRABPs,” Methods Mol Biol 89, 123-139 (1998)). In the second step, Kds for binding of non-fluorescent ligands were measured by monitoring their ability to displace ANS in the binding pocket of the protein. Each FABP was precomplexed with ANS at 1:1 molar ratio and titrated with the different compounds whose binding was reflected by a decrease in probe fluorescence. Kds were extracted from the EC50 of the competition curve and the measured Kd for ANS.

Another series deals with PPARα (Homo sapiens (Human), UniProt Q07869). The series can be described thus: Transcriptional activation assay in COS7 cells, PPARα. The class given is cell-based. To be noted: PPRE luciferase reporter, PD151 and PD152 at 10 μM. The protocol: (§5) COS-7 were cultured in 6-well plates and co-transfected with either a luciferase reporter driven by 3 copies of a PPRE and expression vector for either PPARδ, PPARα or PPARγ together with a vector harboring cDNA for β-galactosidase, serving as a transfection control. To test whether FABP4 or FABP5 mediate activation of their cognate receptors PPARγ and PPARδ, respectively, cells were also co-transfected with a plasmid harboring sequence of either FABP4 or FABP5. 18 h post-transfection, cells were placed in a serum-free medium and treated with agonist/compound. 18 h. later, cells were lysed, luciferase activity was assayed (Promega, WI, USA) and corrected for transfection efficiency by the activity of β-galactosidase.
PPARα, sequence (Q07869 whole entry, species assumed): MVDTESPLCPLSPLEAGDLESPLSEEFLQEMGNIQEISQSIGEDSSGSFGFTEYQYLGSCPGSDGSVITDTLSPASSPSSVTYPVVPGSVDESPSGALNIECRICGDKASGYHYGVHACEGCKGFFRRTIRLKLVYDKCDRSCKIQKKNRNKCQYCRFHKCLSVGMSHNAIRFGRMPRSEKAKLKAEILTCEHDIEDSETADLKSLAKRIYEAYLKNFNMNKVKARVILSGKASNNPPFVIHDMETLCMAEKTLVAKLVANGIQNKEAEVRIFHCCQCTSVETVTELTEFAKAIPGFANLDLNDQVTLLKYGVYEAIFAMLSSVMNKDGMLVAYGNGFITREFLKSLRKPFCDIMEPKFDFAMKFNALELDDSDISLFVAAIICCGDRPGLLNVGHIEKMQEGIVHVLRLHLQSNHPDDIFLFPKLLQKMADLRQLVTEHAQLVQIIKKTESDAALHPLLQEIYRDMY
(§6) Transcriptional activation assays were carried out utilizing COS7 cells as described above.
On the technique in general: Reporter assays use an easily measured gene product as a stand-in for the process of interest.

A further series addresses FABP5 (Homo sapiens (Human), UniProt Q01469). Put plainly: Fluorescence (ANS) competition binding assay, FABP5. To be noted: ANS displacement. The procedure:
as §3, §4

A short description of series [1]: Single dose IV and PO PK study in C57BL/6 mice. The series is classed as in vivo. The following applies: male C57BL/6 mice. The procedure: C57BL/6 male mice or Han Wistar rats were used, n=3 for each administration route and compound. Single dose of each compound was administered orally (PO, 10 mg/Kg) or by intravenous administration (IV, 1 mg/Kg). Following intravenous and oral administration, blood samples (ca 0.2 mL) were collected and compound amount was measured by HLPC. For IV group, blood samples were collected at 0.083, 0.25, 0.5, 1, 2, 4, 6, 8, and 24 hours post-dose. For PO group, blood samples were collected at 0.25, 0.5, 1, 2, 4, 6, 8, and 24 hours post-dose.

For a further series, the system named is BT-549 cells. Put plainly: Proliferation assay (Incucyte confluency), BT-549. The following applies: Homo sapiens, 96 h, 4 days, read-out: IC50, inhibition of proliferation. The series is classed as cell-based. The procedure: as §1, §2
The target of another series is PPARδ (Homo sapiens (Human), UniProt Q03181). The series can be described thus: Transcriptional activation assay in COS7 cells, PPARδ. The following applies: PPRE luciferase reporter, PD151 and PD152 at 10 μM. The class given is cell-based. The procedure:
as §5, §6

A further series deals with MB-231 cells. The series can be described thus: Proliferation assay (Incucyte confluency), MB-231. The class given is cell-based. To be noted: Homo sapiens, 96 h, 4 days, read-out: IC50, inhibition of proliferation. The procedure: as §1, §2
Another series concerns the target FABP4 (Homo sapiens (Human), UniProt P15090). The series can be described thus: Fluorescence (ANS) competition binding assay, FABP4. To be noted: ANS displacement. The protocol:
as §3, §4

Another series concerns the target FABP7 (Homo sapiens (Human), UniProt O15540). The series can be described thus: Fluorescence (ANS) competition binding assay, FABP7. The following applies: ANS displacement. The procedure:
as §3, §4

Another series concerns the target PPARγ (Homo sapiens (Human), UniProt P37231). The series can be described thus: Transcriptional activation assay in COS7 cells, PPARγ. To be noted: PPRE luciferase reporter, PD151 and PD152 at 10 μM. The class given is cell-based. The procedure:
as §5, §6

The next series relates to OVCAR5 cells. Put plainly: Proliferation assay (Incucyte confluency), OVCAR5. The series is classed as cell-based, human. The following applies: 4 days. The procedure: as §1, §2
[2] abbreviates: mouse, plasma, intravenous 1 mg/kg.

SMILES strings stand for the structures. “Also recorded” adds a separate entry of the source.

Broadly, the Kd is a measure of binding affinity in units of concentration. Higher therefore signals lower affinity. By half-life is commonly meant the time in which the quantity being followed falls by half. Higher therefore signals slow loss. A word on the bioavailability: it is dose-corrected exposure relative to a reference, in per cent. A low value points to poor availability.

PPARδ, sequence (Q03181 whole entry, species assumed): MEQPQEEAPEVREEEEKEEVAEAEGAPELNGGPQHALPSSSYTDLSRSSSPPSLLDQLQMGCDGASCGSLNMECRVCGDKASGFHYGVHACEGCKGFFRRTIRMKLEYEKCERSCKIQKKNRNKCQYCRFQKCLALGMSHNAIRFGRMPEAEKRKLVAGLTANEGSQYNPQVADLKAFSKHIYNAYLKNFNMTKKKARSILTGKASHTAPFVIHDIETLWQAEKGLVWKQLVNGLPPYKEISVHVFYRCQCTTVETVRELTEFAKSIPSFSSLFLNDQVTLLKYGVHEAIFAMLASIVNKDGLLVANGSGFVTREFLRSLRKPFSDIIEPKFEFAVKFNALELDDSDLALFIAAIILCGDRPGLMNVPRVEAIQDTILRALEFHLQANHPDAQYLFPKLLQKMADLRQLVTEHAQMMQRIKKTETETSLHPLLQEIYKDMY
PPARγ, sequence (P37231 whole entry, species assumed): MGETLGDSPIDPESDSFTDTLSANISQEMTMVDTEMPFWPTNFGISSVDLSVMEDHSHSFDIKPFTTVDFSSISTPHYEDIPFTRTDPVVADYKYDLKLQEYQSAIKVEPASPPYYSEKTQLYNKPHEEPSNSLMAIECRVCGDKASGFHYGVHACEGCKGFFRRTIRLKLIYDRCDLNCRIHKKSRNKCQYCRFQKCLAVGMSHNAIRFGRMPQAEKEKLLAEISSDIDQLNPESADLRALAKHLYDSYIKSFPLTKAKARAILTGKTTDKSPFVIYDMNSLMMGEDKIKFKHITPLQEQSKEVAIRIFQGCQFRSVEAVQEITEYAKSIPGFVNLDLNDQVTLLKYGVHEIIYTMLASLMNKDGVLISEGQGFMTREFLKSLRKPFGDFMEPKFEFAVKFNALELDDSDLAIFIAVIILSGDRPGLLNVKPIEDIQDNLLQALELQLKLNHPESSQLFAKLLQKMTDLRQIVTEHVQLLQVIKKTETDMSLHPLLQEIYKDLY
FABP4, sequence (P15090 whole entry, species assumed): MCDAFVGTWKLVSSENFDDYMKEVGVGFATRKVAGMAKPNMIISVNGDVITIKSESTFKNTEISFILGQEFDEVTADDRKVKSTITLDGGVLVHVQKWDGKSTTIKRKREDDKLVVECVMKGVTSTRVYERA
FABP7, sequence (O15540 whole entry, species assumed): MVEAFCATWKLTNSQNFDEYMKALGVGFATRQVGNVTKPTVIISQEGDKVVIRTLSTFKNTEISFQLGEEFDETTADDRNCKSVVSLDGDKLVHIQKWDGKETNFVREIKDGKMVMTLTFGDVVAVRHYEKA
FABP3, sequence (P05413 whole entry, species assumed): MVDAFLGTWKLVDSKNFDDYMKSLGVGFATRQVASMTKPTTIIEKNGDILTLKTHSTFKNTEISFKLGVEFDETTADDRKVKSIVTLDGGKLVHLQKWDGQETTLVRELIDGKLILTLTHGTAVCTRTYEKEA
FABP5, sequence (Q01469 whole entry, species assumed): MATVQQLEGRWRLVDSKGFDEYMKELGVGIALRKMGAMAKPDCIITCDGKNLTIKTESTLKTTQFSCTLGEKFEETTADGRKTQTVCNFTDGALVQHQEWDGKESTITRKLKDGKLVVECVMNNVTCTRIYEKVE

For `CC(C)Oc1nc(NC(=O)CSCC(=O)O)c(Cl)cc1C(F)(F)F` [PD151, 2-((2-((3-chloro-6-isopropoxy-5-(trifluoromethyl)pyridin-2-yl)amino)-2-oxoethyl)thio)acetic acid], the IC50 worked out at 700 nM in the series on OVCAR8 cells, 1010 nM in the series with BT-549 cells and 727 nM in the series on MB-231 cells. For the same compound, the Kd is 250 nM at FABP3, 16 nM at FABP5, 18 nM on FABP4 and over 1000 nM at FABP7. In addition, the “Activation of transcription by PPARα” value at PPARα was “None of these tested compounds activated; also recorded: none of the tested compounds PD151 and PD152 activated transcription”. This compound had a Thalf in series [1] (oral 10 mg/kg) of 4 h. The compound further returned a clearance in series [1] (setting [2]) of 5.3 mL/min/kg. Also, the half-life in series [1] (setting [2]) was in the range of 3 to 4 h. This compound also had a bioavailability in series [1] (mouse, plasma, single oral dose 10 mg/kg) of 95%. Further, the “Activation of transcription by PPARδ” value on PPARδ is “None of these tested compounds activated; also recorded: none of the tested compounds PD151 and PD152 activated transcription”. Moreover, the “Activation of transcription by PPARγ” value on PPARγ was “None of these tested compounds activated; also recorded: none of the tested compounds PD151 and PD152 activated transcription”. Moreover, in the series on OVCAR5 cells, the “Inhibition of OVCAR5 proliferation” value is given as “inhibited proliferation of the two cell lines in a dose-dependent manner”.
